In paper PMC7403138 (Clinical Pharmacokinetics, 2020):

Assay: Population pharmacokinetic analysis
Assay type: in vivo, human

Row | FRator-oOH (base PK model) [%] | between-subject variability on CLator (base PK model, CV%) [%] | between-subject variability on FRator-oOH (base PK model, CV%) [%] | between-subject variability on Vcator=Vcmet (base PK model, CV%) [%] | decrease in logit(FRator-oOH) (coadministration of boosted ARVs) [%] | central volume of distribution of atorvastatin and o-OH-atorvastatin (Vcator=Vcmet) (base PK model) [L] | metabolite clearance (CLo-OH-ator) (base PK model) [L/h] | o-OH-atorvastatin formed slower (presence vs absence of boosted ARVs, full dataset) [%] | Compound
1 | 11 | 94 | 131 | 137 | 225 |  |  |  | CC(C)c1c(C(=O)Nc2ccccc2)c(-c2ccccc2)c(-c2ccc(F)cc2)n1CC[C@@H](O)C[C@@H](O)CC(=O)O [atorvastatin]
2 |  |  |  |  |  | 3170 | 118 | 88 | CC(C)c1c(C(=O)Nc2ccccc2O)c(-c2ccccc2)c(-c2ccc(F)cc2)n1CC[C@@H](O)C[C@@H](O)CC(=O)O [o-OH-atorvastatin, ortho-hydroxy atorvastatin]
